The test system of one series is SHRSP. The series is described as follows: Test of improving effect of disturbed sleep pattern (EEG/EMG, REMS). Conditions: 15 mg/kg orally twice daily over 5 consecutive days, FIG. 7. The format is in vivo, rat. The source says:
Test animals: Male SHRSP at 13 weeks of age, which received 1% NaCl solution instead of water over 5 weeks, and Wistar Kyoto rats (WKY) at the same age.
Test method: Animals were anesthetized, and electrodes for electroencephalogram (EEG) and a sensor for brain temperature were implanted into the cerebral cortex and electrodes for electromyogram (EMG) were implanted into the back cervical muscle. All variables were continuously recorded for 7 days, and the behavioral states of rats were classified into wakefulness, REMS, NREMS by analyzing the amplitude and frequency of EEG and EMG waves. 1-p-Anisoyl-2-pyrrolidinone at 15 mg/kg or vehicle was administered orally twice daily (morning and evening) over 5 consecutive days.

A further series concerns ACh release. The series is described as follows: Test of the enhancing effect of ACh release (brain microdialysis in freely moving SHRSP). Format: in vivo, rat. Conditions: for enhancement of ACh release (percent change over baseline): perfused for 20 minutes through microdialysis probe (10^-7 to 10^-5 M). The source says:
Test animals: Male stroke-prone spontaneously hypertensive rats (SHRSP) at 13 weeks of age, which received 1% NaCl solution instead of water for 5 weeks prior to the experiment. Test method: SHRSP were anesthetized and a guide cannula was implanted into the thalamus, dorsal hippocampus and prefrontal cortex. After recovery, a concentric microdialysis probe was inserted into the guide cannula and perfused with normal Ringer solution containing 10^−5 M eserine (SIGMA, St. Louis, USA) at a constant flow rate of 2 μl/min under freely moving condition. […] The dialysates for every 20 minutes were collected and injected into the high-pressure liquid chromatography system to quantify extracellular ACh levels. ACh release was expressed as percent change over the average of three consecutive stable samples collected before drug perfusion.

The test system of a further series is aged Wistar rats. Nature of the series: Test of the ameliorating effect of impaired circadian rhythm (food-motivated anticipatory activity). Conditions: 30 and 100 mg/kg orally once daily for 7 consecutive days, FIG. 5. The format is in vivo, rat. As for the experimental part: Test animals: Male Wistar rats at 9 weeks of age (young group) and around 30 months of age (aged group).
Test method: Animals were individually housed and had free access to food and water. After fasting for 24 hours (Day 0), feeding was restricted to only 1 hour/day from 13:30 for 6 consecutive days. Food was again withheld on Day 7, and food-motivated circadian anticipatory activity was investigated. 1-p-Anisoyl-2-pyrrolidinone at 30 and 100 mg/kg or vehicle was orally administered immediately after the feeding time, once daily for 7 consecutive days. Spontaneous motor activity was measured in each home cage.

Series [1] has as its system rats. Nature of the series: Acute toxicity after oral administration to rats (LD50). The format is in vivo, rat. Conditions: both sexes.
The test system of series [2] is rats. Conditions: repeated oral administration over 4 weeks, up to 600 mg/kg.
Series [3] can be described thus: Acute toxicity after oral administration to rats (LD50). Format: in vivo, rat. Conditions: rat, in vivo.
[4] abbreviates: dorsal hippocampus of SHRSP, FIG. 2.
[5] abbreviates: prefrontal cortex of SHRSP, FIG. 3.

As for `COc1ccc(C(=O)N2CCCC2=O)cc1` [1-p-anisoyl-2-pyrrolidinone, 1-p-Anisoyl-2-pyrrolidinone], the “reduced diurnal REMS” value with SHRSP is reported as “ameliorated”. Also, the “effect on ACh release” value with ACh release (any cerebral regions (thalamus, dorsal hippocampus, prefrontal cortex) of SHRSP) is “not observed”. For the same molecule, in the series with aged Wistar rats, the “impaired food-motivated anticipatory activity” value is given as “significantly ameliorated”.
`COc1ccc(C(=O)NCCCC(=O)O)cc1` [N-anisoyl-GABA, N-anisoyl-γ-aminobutyric acid]: the “enhancement of ACh release (percent change over baseline)” value in the series with ACh release (setting [4]) was found to be 48%; in the series with ACh release (setting [5]), 70%; in the series with ACh release (thalamus of SHRSP, FIG. 1), 32%. The “acute toxicity (LD50 values)” value in the series with rats [1] is “more than 5,000 mg/kg”. In addition, the “sub-acute toxicity, such as lethality and abnormality in hematological, hematobiochemical and toxipathological tests” value in the series with rats [2] is reported as “not observed”.
For the molecule `COc1ccc(C(=O)O)cc1` [p-anisic acid], the “enhancement of ACh release (percent change over baseline)” value in the series with ACh release (setting [4]) worked out at 51%; in the series with ACh release (setting [5]), 61%; with ACh release (thalamus of SHRSP, FIG. 1), 22%. For the same molecule, the LD50 in series [3] (female animals) came to 2120 mg/kg; in series [3] (male animals), 1810 mg/kg. Besides, the “sub-acute toxicity, such as lethality and abnormality in hematological, hematobiochemical and toxipathological tests” value with rats [2] was “not observed”.

The record behind these values is patent US20030073744A1, “Agent for enhancing cerebral acetylcholine release” (priority 1999, published 2003).
